Counter-ions that a name gives are not always drawn.
Target: T1, USP7 (Homo sapiens, UniProt Q93009)
Experiment: gel-based GST-UBA52 cleavage assay and Ub-AMC assay with USP7; supported by CETSA, DARTS and HA-Ub-VS competition in HO8910 lysate
Assay type: biochemical
Conditions: not given

T1 sequence (Q93009 whole entry): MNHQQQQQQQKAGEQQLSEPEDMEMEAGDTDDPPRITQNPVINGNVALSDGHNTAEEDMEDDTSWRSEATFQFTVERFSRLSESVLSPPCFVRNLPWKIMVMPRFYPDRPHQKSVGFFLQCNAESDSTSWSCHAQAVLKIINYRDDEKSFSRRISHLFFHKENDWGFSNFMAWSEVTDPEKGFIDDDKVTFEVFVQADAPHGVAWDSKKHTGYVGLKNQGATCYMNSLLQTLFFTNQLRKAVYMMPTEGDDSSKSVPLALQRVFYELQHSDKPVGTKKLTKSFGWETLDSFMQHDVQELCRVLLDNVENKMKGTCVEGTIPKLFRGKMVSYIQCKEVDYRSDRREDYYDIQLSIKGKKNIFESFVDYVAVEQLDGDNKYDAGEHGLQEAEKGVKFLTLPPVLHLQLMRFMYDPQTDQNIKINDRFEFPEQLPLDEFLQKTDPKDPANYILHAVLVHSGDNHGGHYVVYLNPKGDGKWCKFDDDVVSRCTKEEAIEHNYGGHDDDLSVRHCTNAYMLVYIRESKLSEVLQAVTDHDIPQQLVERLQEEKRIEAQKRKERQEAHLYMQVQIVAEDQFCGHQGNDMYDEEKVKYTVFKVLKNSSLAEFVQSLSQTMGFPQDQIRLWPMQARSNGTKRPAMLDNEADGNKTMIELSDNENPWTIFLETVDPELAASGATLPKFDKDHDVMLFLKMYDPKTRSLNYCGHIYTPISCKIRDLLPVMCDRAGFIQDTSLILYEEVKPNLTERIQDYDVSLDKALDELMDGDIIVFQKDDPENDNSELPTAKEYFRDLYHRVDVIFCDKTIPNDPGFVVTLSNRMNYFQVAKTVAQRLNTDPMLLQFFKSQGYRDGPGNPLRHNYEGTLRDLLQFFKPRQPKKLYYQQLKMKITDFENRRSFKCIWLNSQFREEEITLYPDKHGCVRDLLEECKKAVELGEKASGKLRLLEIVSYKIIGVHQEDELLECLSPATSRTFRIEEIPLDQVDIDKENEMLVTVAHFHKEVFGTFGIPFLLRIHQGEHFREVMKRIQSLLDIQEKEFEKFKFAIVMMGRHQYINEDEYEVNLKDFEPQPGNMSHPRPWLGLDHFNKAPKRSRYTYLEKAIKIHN

| SMILES | IC50 [µM] |
| --- | --- |
| COC(=O)[C@]12CCC(C)(C)C[C@H]1[C@H]1C(=O)C=C3[C@@]4(C)C=C(C#N)C(=O)C(C)(C)[C@@H]4CC[C@@]3(C)[C@]1(C)CC2 [CDDO-Me] | 14.1 |

Target: USP2 (Homo sapiens, UniProt O75604)
Experiment: in vitro deubiquitinase activity assay (Supplementary Figure S1)
Assay type: biochemical
Conditions: not given

Sequence of USP2 (O75604 whole entry): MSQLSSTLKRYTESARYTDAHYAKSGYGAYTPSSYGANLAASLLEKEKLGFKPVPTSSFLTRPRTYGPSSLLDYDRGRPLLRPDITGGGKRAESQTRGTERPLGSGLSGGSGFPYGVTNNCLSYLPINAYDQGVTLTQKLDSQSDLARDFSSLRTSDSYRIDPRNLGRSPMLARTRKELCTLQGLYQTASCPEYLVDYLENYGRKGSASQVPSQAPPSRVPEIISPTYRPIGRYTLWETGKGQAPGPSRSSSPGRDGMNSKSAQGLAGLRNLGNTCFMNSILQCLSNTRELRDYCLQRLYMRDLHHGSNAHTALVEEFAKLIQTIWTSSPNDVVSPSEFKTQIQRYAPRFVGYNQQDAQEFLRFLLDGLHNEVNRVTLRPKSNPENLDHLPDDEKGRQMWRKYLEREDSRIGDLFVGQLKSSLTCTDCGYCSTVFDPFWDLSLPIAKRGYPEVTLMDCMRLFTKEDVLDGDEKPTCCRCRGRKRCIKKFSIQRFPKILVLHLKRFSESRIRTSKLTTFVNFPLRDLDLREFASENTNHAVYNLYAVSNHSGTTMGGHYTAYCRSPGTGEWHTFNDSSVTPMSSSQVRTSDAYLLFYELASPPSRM

| SMILES | IC50 [µM] |
| --- | --- |
| COC(=O)[C@]12CCC(C)(C)C[C@H]1[C@H]1C(=O)C=C3[C@@]4(C)C=C(C#N)C(=O)C(C)(C)[C@@H]4CC[C@@]3(C)[C@]1(C)CC2 [CDDO-Me] | 22.3 |

Target: T1, USP7
Experiment: biochemical
Parameters: Ub-AMC hydrolysis by recombinant USP7 (20 nM), 30 min pre-incubation, fluorescence read-out
Conditions: read-out: % Inhibition at 50 μM

| SMILES | inhibition at 50 µM [%] |
| --- | --- |
| COC(=O)[C@]12CCC(C)(C)C[C@H]1[C@H]1C(=O)C=C3[C@@]4(C)C=C(C#N)C(=O)C(C)(C)[C@@H]4CC[C@@]3(C)[C@]1(C)CC2 [CDDO-Me] | 91.5 |
| O=C(O)CCCc1ccccc1 [Sodium phenylbutyrate] | < 5 |
| CC(C)NCC(O)c1ccc(NS(C)(=O)=O)cc1 (stereo not shown) [Sotalol HCl] | < 5 |
| C[C@@H]1CN(c2c(F)c(N)c3c(=O)c(C(=O)O)cn(C4CC4)c3c2F)C[C@H](C)N1 [Sparfloxacin] | < 5 |
| CN[C@@H]1[C@H](O)[C@H](NC)[C@H]2O[C@@]3(O)C(=O)C[C@@H](C)O[C@H]3O[C@@H]2[C@H]1O [Spectinomycin] | < 5 |
| O=C(CCCN1CCC2(CC1)C(=O)NCN2c1ccccc1)c1ccc(F)cc1 [Spiperone] | < 5 |
| CC(=O)S[C@@H]1CC2=CC(=O)CC[C@]2(C)[C@H]2CC[C@@]3(C)[C@@H](CC[C@@]34CCC(=O)O4)[C@H]12 [Spironolactone] | 36.4 |
| C[C@]12Cc3c[nH]nc3C[C@@H]1CC[C@@H]1[C@@H]2CC[C@@]2(C)[C@H]1CC[C@]2(C)O [Stanozolol] | < 5 |
| CN[C@@H]1[C@H](O[C@H]2[C@H](O[C@H]3[C@H](O)[C@@H](O)[C@H](N=C(N)N)[C@@H](O)[C@@H]3N=C(N)N)O[C@@H](C)[C@]2(O)C=O)O[C@@H](CO)[C@H](O)[C@H]1O [Streptomycin sulfate] | < 5 |
| O=C1C[C@@H]2OCC=C3CN4CC[C@]56c7ccccc7N1[C@H]5[C@H]2[C@H]3C[C@H]46 [Strychnine HCl] | < 5 |
| C[N+](C)(C)CCOC(=O)CCC(=O)OCC[N+](C)(C)C [Succinylcholine] | < 5 |
| CC1(C)[C@H](C(=O)O)N2C(=O)C[C@H]2S1(=O)=O [Sulbactam] | < 5 |
| Nc1ccc(S(=O)(=O)Nc2ncccn2)cc1 [Sulfadiazine] | < 5 |
| COc1cc(NS(=O)(=O)c2ccc(N)cc2)nc(OC)n1 [Sulfadimethoxine] | < 5 |
| COc1ncnc(NS(=O)(=O)c2ccc(N)cc2)c1OC [Sulfadoxine] | < 5 |
| O=C(O)c1cc(/N=N/c2ccc(S(=O)(=O)Nc3ccccn3)cc2)ccc1O [Sulfasalazine] | < 5 |
| CCN1CCC[C@H]1CNC(=O)c1cc(S(N)(=O)=O)ccc1OC [Sulpiride s (-)] | < 5 |
| Cc1ccc(C(=O)Nc2ccc(S(=O)(=O)O)c3cc(S(=O)(=O)O)cc(S(=O)(=O)O)c23)cc1NC(=O)c1cccc(NC(=O)Nc2cccc(C(=O)Nc3cc(C(=O)Nc4ccc(S(=O)(=O)O)c5cc(S(=O)(=O)O)cc(S(=O)(=O)O)c45)ccc3C)c2)c1 [Suramin sodium] | < 5 |
| CC/C(=C(\c1ccccc1)c1ccc(OCCN(C)C)cc1)c1ccccc1 [Tamoxifen citrate] | < 5 |
| CC(=O)O[C@H]1C(=O)[C@@]2(C)[C@H]([C@H](OC(=O)c3ccccc3)[C@]3(O)C[C@H](OC(=O)[C@H](O)[C@@H](NC(=O)c4ccccc4)c4ccccc4)C(C)=C1C3(C)C)[C@]1(OC(C)=O)CO[C@@H]1C[C@@H]2O [Taxol] | 26.9 |
| Cc1scc2c1N(C(=O)CN1CCN(C)CC1)c1ccccc1NC2=O [Telenzepine 2HCl] | < 5 |
| CN(C/C=C/C#CC(C)(C)C)Cc1cccc2ccccc12 [Terbinafine HCl] | 8.6 |
| CS(=O)(=O)c1ccc([C@H](O)[C@@H](COC(=O)CN)NC(=O)C(Cl)Cl)cc1 [Thiamphenicol glycinate] | < 5 |
| CSc1ccc2c(c1)N(CCC1CCCCN1C)c1ccccc1S2 (stereo not shown) [Thioridazine HCl] | < 5 |
| C/N=C(/NC#N)NCCSCc1csc(NC(=N)N)n1 [Tiotidine] | 11.6 |
| C[N+]1(C)[C@@H]2C[C@@H](OC(=O)C(O)(c3cccs3)c3cccs3)C[C@H]1[C@@H]1O[C@@H]12 [Tiotropium Br] | < 5 |
| CCCCNC(=O)NS(=O)(=O)c1ccc(C)cc1 [Tolbutamide] | < 5 |

| SMILES | inhibition at 50 µM [%] |
| --- | --- |
| Cc1ccc(C(=O)c2cc(O)c(O)c([N+](=O)[O-])c2)cc1 [Tolcapone] | 28.6 |
| Cc1ccc(/C(=C\CN2CCCC2)c2ccccn2)cc1 [Trans-triprolidine HCl] | < 5 |
| COc1cc2c(cc1OC)-c1c/c(=N\c3c(C)cc(C)cc3C)n(C)c(=O)n1CC2 [Trequinsin HCl] | < 5 |
| CN1CCN(CCCN2c3ccccc3Sc3ccc(C(F)(F)F)cc32)CC1 [Trifluoperazine 2HCl] | < 5 |
| O=C(CCCN1CCC(O)(c2cccc(C(F)(F)F)c2)CC1)c1ccc(F)cc1 [Trifluperidol 2HCl] | < 5 |
| Cc1c(C)c2c(c(C)c1O)CCC(C)(COc1ccc(CC3SC(=O)NC3=O)cc1)O2 (stereo not shown) [Troglitazone] | 5.3 |
| CO[C@H]1C[C@H](O[C@H]2[C@H](C)[C@@H](O[C@@H]3O[C@H](C)C[C@H](N(C)C)[C@H]3OC(C)=O)[C@@H](C)C[C@@]3(CO3)C(=O)[C@H](C)[C@@H](OC(C)=O)[C@@H](C)[C@@H](C)OC(=O)[C@@H]2C)O[C@@H](C)[C@@H]1OC(C)=O [Troleandomycin] | < 5 |
| CC(C)(C)NCC(O)c1ccccc1Cl (stereo not shown) [Tulobuterol] | 16.5 |
| C[C@H]1[C@H](C)CC[C@]2(C(=O)O)CC[C@]3(C)C(=CC[C@@H]4[C@@]5(C)CC[C@H](O)C(C)(C)[C@@H]5CC[C@]43C)[C@H]12 [Uosolic acid] | 75.2 |
| CCCc1nc(C)c2c(=O)nc(-c3cc(S(=O)(=O)N4CCN(CC)CC4)ccc3OCC)[nH]n12 [Vardenafil] | < 5 |
| Clc1ccc(Nc2nnc(Cc3ccncc3)c3ccccc23)cc1 [Vatalanib] | < 5 |
| COc1ccc(C(CN(C)C)C2(O)CCCCC2)cc1 (stereo not shown) [Venlafaxine HCl] | < 5 |
| COc1ccc(CCN(C)CCCC(C#N)(c2ccc(OC)c(OC)c2)C(C)C)cc1OC (stereo not shown) [Verapamil] | < 5 |
| CC[C@]1(O)C[C@H]2CN(CCc3c([nH]c4ccccc34)[C@@](C(=O)OC)(c3cc4c(cc3OC)N(C=O)[C@H]3[C@@](O)(C(=O)OC)[C@H](OC(C)=O)[C@]5(CC)C=CCN6CC[C@]43[C@@H]65)C2)C1 [Vincristine sulfate] | < 5 |
| CC[C@]1(O)C[C@@H]2CN(CCc3c([nH]c4ccccc34)[C@@](C(=O)OC)(c3cc4c(cc3OC)N(C)[C@H]3[C@@](O)(C(N)=O)[C@H](O)[C@]5(CC)C=CCN6CC[C@]43[C@@H]65)C2)C1 [Vindesine] | < 5 |
| CCC1=C[C@@H]2CN(C1)Cc1c([nH]c3ccccc13)[C@@](C(=O)OC)(c1cc3c(cc1OC)N(C)[C@H]1[C@@](O)(C(=O)OC)[C@H](OC(C)=O)[C@]4(CC)C=CCN5CC[C@]31[C@@H]54)C2 [Vinorelbine] | 45.3 |
| CCOC(=O)C1=C[C@]2(CC)CCCN3CCc4c(n1c1ccccc41)[C@@H]32 [Vinpocetine] | 38.5 |
| O=C(CCCCCCC(=O)Nc1ccccc1)NO [Vorinostat] | < 5 |
| O=C(NCCNCC(O)COc1ccc(O)cc1)N1CCOCC1 (stereo not shown) [Xamoterol hemifumarate] | < 5 |
| Cc1cccc(C)c1NC1=NCCCS1 [Xylazine HCl] | < 5 |
| CCCOc1ccccc1-c1nc2[nH]nnc2c(=O)[nH]1 [Zaprinast] | < 5 |
| COc1cc(-c2ccc(=O)[nH]n2)ccc1OC(F)F [Zardaverine] | < 5 |
| O=P(O)(O)C(O)(Cn1ccnc1)P(=O)(O)O [Zoledronic acid] | < 5 |
| NS(=O)(=O)Cc1noc2ccccc12 [Zonisamide] | < 5 |
| CC(C)[C@H]1CC[C@H](C(=O)N[C@H](Cc2ccccc2)C(=O)O)CC1 [nateglinide] | < 5 |
| CN(C)CCc1c[nH]c2ccc(C[C@H]3COC(=O)N3)cc12 [zolmitriptan] | < 5 |
